Source: patent US20190367516A1 (Bayer Pharma Aktiengesellschaft, priority 2015, published 2019)
pEC50: −log10 of the molar value. Where two headings read alike, the source gives them in different places.

Target: T1, human M2 receptor (Homo sapiens, UniProt P08172)
T1 sequence (P08172 1-466): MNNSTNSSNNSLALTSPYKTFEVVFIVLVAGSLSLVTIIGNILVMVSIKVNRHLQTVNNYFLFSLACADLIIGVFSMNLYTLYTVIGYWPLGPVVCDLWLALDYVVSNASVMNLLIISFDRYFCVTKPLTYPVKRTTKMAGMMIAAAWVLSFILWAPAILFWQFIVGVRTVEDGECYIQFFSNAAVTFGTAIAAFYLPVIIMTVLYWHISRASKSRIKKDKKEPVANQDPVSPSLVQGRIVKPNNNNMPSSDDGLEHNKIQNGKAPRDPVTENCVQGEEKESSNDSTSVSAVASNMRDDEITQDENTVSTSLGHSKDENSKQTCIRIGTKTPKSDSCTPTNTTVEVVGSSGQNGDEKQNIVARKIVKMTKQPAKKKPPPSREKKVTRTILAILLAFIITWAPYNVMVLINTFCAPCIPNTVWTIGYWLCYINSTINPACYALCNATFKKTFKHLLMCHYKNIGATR
Details: for Emax: read-out: Efficiency, boosting of the acetylcholine effect at EC20 acetylcholine concentration; for Efficiency: boosting of the acetylcholine effect at EC20 acetylcholine concentration

[1] = Receptor activity EC50, allosteric potency at EC20 acetylcholine, M2-GIRK1/4 reporter cells, in some cases mean of two or more determinations
[2] = Receptor activity EC50, M2-GIRK1/4 activation test, acetylcholine at EC20, allosteric potency, in some cases mean values from two or more determinations

Row | SMILES | pEC50 [1] | Emax (M2-GIRK1/4 reporter cells) [%] | pEC50 [2] | Efficiency (M2-GIRK1/4 reporter cells) [%]
1 | CC(C)(CC(F)(F)F)NC(=O)c1cn(-c2c(F)cc(F)cc2F)c2nc(N3C[C@@H](O)[C@@H](O)C3)ccc2c1=O [Example 612, 7-[(3R,4S)-3,4-Dihydroxypyrrolidin-1-yl]-4-oxo-N-(4,4,4-trifluoro-2-methylbutan-2-yl)-1-(2,4,6-trifluorophenyl)-1,4-dihydro-1,8-naphthyridine-3-carboxamide] | 7.54 | 100 | – | –
2 | CC[C@@H](NC(=O)c1cn(-c2ccc(F)cc2F)c2nc(N3CCC(C)(O)C3=O)ccc2c1=O)C(F)(F)F (single isomer, unassigned) [Example 195] | – | – | 6.46 | –
3 | COCC(C)(NC(=O)c1cn(-c2ccc(F)cc2F)c2nc(N3C[C@@H](O)CC3=O)ccc2c1=O)C(F)(F)F (stereo partly drawn) [Example 236, 1-(2,4-Difluorophenyl)-7-[(4S)-4-hydroxy-2-oxopyrrolidin-1-yl]-4-oxo-N-[1,1,1-trifluoro-3-methoxy-2-methylpropan-2-yl]-1,4-dihydro-1,8-naphthyridine-3-carboxamide] | – | – | 6.07 | –
4 | CC[C@@H](NC(=O)c1cn(-c2c(Cl)cc(F)cc2Cl)c2nc(N3CCNC3=O)ccc2c1=O)C(F)(F)F [Example 649, 1-(2,6-Dichloro-4-fluorophenyl)-4-oxo-7-(2-oxoimidazolidin-1-yl)-N-[(2R)-1,1,1-trifluorobutan-2-yl]-1,4-dihydro-1,8-naphthyridine-3-carboxamide] | 7.08 | 94 | – | –
5 | O=C(N[C@@H](C1CC1)C(F)(F)F)c1cn(-c2c(F)cc(F)cc2F)c2nc(N3CC(CO)(CO)C3)ccc2c1=O [Example 502, 7-[3,3-Bis(hydroxymethyl)azetidin-1-yl]-N-[(1S)-1-cyclopropyl-2,2,2-trifluoroethyl]-4-oxo-1-(2,4,6-trifluorophenyl)-1,4-dihydro-1,8-naphthyridine-3-carboxamide] | 7.52 | 91 | – | –
6 | CC[C@H](NC(=O)c1cn(-c2c(F)cc(F)cc2F)c2nc(N(C)C[C@@H](C)O)ccc2c1=O)C(F)(F)F [Example 495] | 7.51 | 99.5 | – | –
7 | CC[C@@H](NC(=O)c1cn(-c2ccc(F)cc2F)c2nc(N3CCCN(CC)C3=O)ccc2c1=O)C(F)(F)F [Example 344, 1-(2,4-Difluorophenyl)-7-(3-ethyl-2-oxotetrahydropyrimidin-1(2H)-yl)-4-oxo-N-[(2R)-1,1-trifluorobutan-2-yl]-1,4-dihydro-1,8-naphthyridine-3-carboxamide] | – | – | 7.27 | –
8 | O=C(NC(c1ccccc1Cl)C(F)(F)F)c1cn(-c2c(F)cc(F)cc2F)c2nc(N3C[C@@H](O)CC3=O)ccc2c1=O (single isomer, unassigned) [Example 534] | 8.22 | – | – | 100.0
9 | CC1C(=O)N(c2ccc3c(=O)c(C(=O)N[C@@H](C4CC4)C(F)(F)F)cn(-c4c(F)cc(F)cc4F)c3n2)CC1O (some centres unmarked) [Example 579, N-[(1 S)-1-Cyclopropyl-2,2,2-trifluoroethyl]-7-[4-hydroxy-3-methyl-2-oxopyrrolidin-1-yl]-4-oxo-1-(2,4,6-trifluorophenyl)-1,4-dihydro-1,8-naphthyridine-3-carboxamide] | 7.85 | 97.5 | – | –
10 | O=C(NC12CC3CC(CC(C3)C1)C2)c1cn(-c2ccc(F)cc2F)c2nc(N3CCC(F)(CO)CC3)ccc2c1=O [Example 16, 1-(2,4-Difluorophenyl)-7-[4-fluoro-4-(hydroxymethyl)piperidin-1-yl]-4-oxo-N-(tricyclo[3.3.1.1^3,7]dec-1-yl)-1,4-dihydro-1,8-naphthyridine-3-carboxamide] | – | – | 7.05 | –
11 | CC(C)C[C@@H](NC(=O)c1cn(-c2c(F)cc(F)cc2F)c2nc(N3C[C@@H](O)[C@H](O)C3)ccc2c1=O)C(F)(F)F [Example 544, 7-[(3R,4R)-3,4-Dihydroxypyrrolidin-1-yl]-4-oxo-N-[(2R)-1,1,1-trifluoro-4-methylpentan-2-yl]-1-(2,4,6-trifluorophenyl)-1,4-dihydro-1,8-naphthyridine-3-carboxamide] | 8.10 | 98 | – | –
12 | O=C(NC12CCC(F)(CC1)CC2)c1cn(-c2ccc(F)cc2F)c2nc(N3CC[C@H](F)C3)ccc2c1=O [Example 63, 1-(2,4-Difluorophenyl)-N-(4-fluorobicyclo[2.2.2]oct-1-yl)-7-[(3S)-3-fluoropyrrolidin-1-yl]-4-oxo-1,4-dihydro-1,8-naphthyridine-3-carboxamide] | – | – | 7.40 | –
13 | CC[C@@H](NC(=O)c1cn(-c2c(F)cccc2Cl)c2nc(N3CC[C@@H](O)C3=O)ccc2c1=O)C(F)(F)F [Example 308, 1-(2-Chloro-6-fluorophenyl)-7-[(3R)-3-hydroxy-2-oxopyrrolidin-1-yl]-4-oxo-N-[(2R)-1,1,1-trifluorobutan-2-yl]-1,4-dihydro-1,8-naphthyridine-3-carboxamide] | – | – | 7.52 | –
14 | CC(C)C(NC(=O)c1cn(-c2ccc(F)cc2F)c2nc(N(C)CCF)ccc2c1=O)C(F)(F)F (centres unmarked) [Example 108, 1-(2,4-Difluorophenyl)-7-[(2-fluoroethyl)(methyl)amino]-4-oxo-N-[1,1,1-trifluoro-3-methylbutan-2-yl]-1,4-dihydro-1,8-naphthyridine-3-carboxamide] | – | – | 7.62 | –
15 | CC[C@@H](NC(=O)c1cn(-c2ccc(F)cc2F)c2nc(N3CCOC(C(F)F)C3)ccc2c1=O)C(F)(F)F (mixture of isomers) [Example 263, 7-[2-(Difluoromethyl)morpholin-4-yl]-1-(2,4-difluorophenyl)-4-oxo-N-[(2R)-1,1,1-trifluorobutan-2-yl]-1,4-dihydro-1,8-naphthyridine-3-carboxamide] | – | – | 6.36 | –
16 | CC[C@H](NC(=O)c1cn(-c2ccc(F)cc2F)c2nc(N(C)C)ccc2c1=O)C(F)(F)F [Example 45, 1-(2,4-Difluorophenyl)-7-(dimethylamino)-4-oxo-N-[(2S)-1,1,1-trifluorobutan-2-yl]-1,4-dihydro-1,8-naphthyridine-3-carboxamide] | – | – | 7.55 | –
17 | O=C(N[C@@H](C1CC1)C(F)(F)F)c1cn(-c2c(F)cc(F)cc2F)c2nc(N3CCOC(CO)C3)ccc2c1=O (mixture of isomers) [Example 463, N-[(1 S)-1-Cyclopropyl-2,2,2-trifluoroethyl]-7-[2-(hydroxymethyl)morpholin-4-yl]-4-oxo-1-(2,4,6-trifluorophenyl)-1,4-dihydro-1,8-naphthyridine-3-carboxamide] | 7.27 | 89 | – | –
18 | CCC(NC(=O)c1cn(-c2ccc(F)cc2F)c2nc(N3CCC(F)(F)C3)ccc2c1=O)C(F)(F)F (racemic) [Example 74, rac-1-(2,4-Difluorophenyl)-7-(3,3-difluoropyrrolidin-1-yl)-4-oxo-N-[1,1,1-trifluorobutan-2-yl]-1,4-dihydro-1,8-naphthyridine-3-carboxamide] | – | – | 7.24 | –
19 | CC(NC(=O)c1cn(-c2c(F)cc(F)cc2F)c2nc(N3C[C@@H](O)CC3=O)ccc2c1=O)(C1CC1)C(F)(F)F (mixture of isomers) [Example 508, N-[2-Cyclopropyl-1,1,1-trifluoropropan-2-yl]-7-[(4S)-4-hydroxy-2-oxopyrrolidin-1-yl]-4-oxo-1-(2,4,6-trifluorophenyl)-1,4-dihydro-1,8-naphthyridine-3-carboxamide] | 8.15 | 93.5 | – | –
20 | CC[C@@H](NC(=O)c1cn(-c2ccc(F)cc2F)c2nc(N3CCN(C)C3=O)ccc2c1=O)C(F)(F)F [Example 321, 1-(2,4-Difluorophenyl)-7-(3-methyl-2-oxoimidazolidin-1-yl)-4-oxo-N-[(2R)-1,1,1-trifluorobutan-2-yl]-1,4-dihydro-1,8-naphthyridine-3-carboxamide] | – | – | 7.37 | –
21 | CC[C@@H](NC(=O)c1cn(-c2ccccc2C(F)(F)F)c2nc(N3C[C@@H](O)CC3=O)ccc2c1=O)C(F)(F)F (single isomer, unassigned) [Example 270] | – | – | 5.80 | –
22 | O=C(N[C@@H](C1CC1)C(F)(F)F)c1cn(-c2c(F)cc(F)cc2F)c2nc(N3CCOC(CO)C3)ccc2c1=O (single isomer, unassigned) [Example 465, N-[(1 S)-1-Cyclopropyl-2,2,2-trifluoroethyl]-7-[2-(hydroxymethyl)morpholin-4-yl]-4-oxo-1-(2,4,6-trifluorophenyl)-1,4-dihydro-1,8-naphthyridine-3-carboxamide] | 7.12 | – | – | 89.0
23 | CC(NC(=O)c1cn(-c2c(F)cc(F)cc2F)c2nc(N3C[C@@H](O)CC3=O)ccc2c1=O)C(F)(F)C(F)(F)F (mixture of isomers) [Example 529, 7-[(4S)-4-Hydroxy-2-oxopyrrolidin-1-yl]-4-oxo-N-[3,3,4,4,4-pentafluorobutan-2-yl]-1-(2,4,6-trifluorophenyl)-1,4-dihydro-1,8-naphthyridine-3-carboxamide] | 8.22 | 96 | – | –
24 | CC(NC(=O)c1cn(-c2ccc(F)cc2F)c2nc(N3C[C@@H](O)CC3=O)ccc2c1=O)c1ccccc1F (stereo partly drawn) [Example 235, 1-(2,4-Difluorophenyl)-N-[1-(2-fluorophenyl)ethyl]-7-[(4S)-4-hydroxy-2-oxopyrrolidin-1-yl]-4-oxo-1,4-dihydro-1,8-naphthyridine-3-carboxamide] | – | – | 6.68 | –
